Data reported in PubChem BioAssay AID248 (DTP/NCI, 2004).
Where “and” joins values, the source holds several entries; their conditions need not be identical. Identical values can stand only once. Inconclusive results and toxic doses are left out. No stated cut-off is given here; in the data, active means T/C of 150% or more; inactive means T/C below 125%.

Tested on: L1210 leukemia ip in BDF1 mice, survival T/C
Assay: NCI In Vivo Anticancer Drug Screen. Data for tumor model L1210 Leukemia (intraperitoneal) in B6D2F1 (BDF1) mice
Details: endpoint: mean survival time, higher = longer survival
Procedure, shortened: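 Transplantable tumor model; survival measured in treated vs vehicle control mice. Value = treated/control.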

[1] = dose: 100.0 mg/kg/injection, schedule: Q01DX001 (ip), vehicle: other
[2] = dose: 200.0 mg/kg/injection, schedule: Q01DX001 (ip), vehicle: other
[3] = dose: 400.0 mg/kg/injection, schedule: Q01DX001 (ip), vehicle: other
[4] = dose: 100.0 mg/kg/injection, schedule: Q01DX001 (ip), vehicle: saline
[5] = dose: 200.0 mg/kg/injection, schedule: Q01DX001 (ip), vehicle: saline
[6] = dose: 100.0 mg/kg/injection, schedule: Q04DX003 (ip), vehicle: saline with Tween-80
[7] = dose: 200.0 mg/kg/injection, schedule: Q04DX003 (ip), vehicle: saline with Tween-80
[8] = dose: 400.0 mg/kg/injection, schedule: Q04DX003 (ip), vehicle: saline with Tween-80
[9] = dose: 100.0 mg/kg/injection, schedule: Q01DX009 (ip), vehicle: Klucel (hydroxypropylcellulose) (HPC)
[10] = dose: 100.0 mg/kg/injection, schedule: Q04DX003 (ip), vehicle: Klucel (hydroxypropylcellulose) (HPC)
[11] = dose: 200.0 mg/kg/injection, schedule: Q04DX003 (ip), vehicle: Klucel (hydroxypropylcellulose) (HPC)
[12] = dose: 400.0 mg/kg/injection, schedule: Q04DX003 (ip), vehicle: Klucel (hydroxypropylcellulose) (HPC)
[13] = dose: 100.0 mg/kg/injection, schedule: Q01DX009 (ip), vehicle: saline with Tween-80
[14] = dose: 200.0 mg/kg/injection, schedule: Q01DX009 (ip), vehicle: saline with Tween-80
[15] = dose: 400.0 mg/kg/injection, schedule: Q01DX009 (ip), vehicle: saline with Tween-80

Measured: T/C

COc1ccc2c(c1)N(C(=O)C(Cl)(Cl)Cl)Cc1ccccc1C2=O
inactive: dose: 100.0 mg/kg/injection, schedule: Q01DX009 (ip), vehicle: saline 87 % of control | dose: 200.0 mg/kg/injection, schedule: Q01DX009 (ip), vehicle: saline 93 % of control | dose: 400.0 mg/kg/injection, schedule: Q01DX009 (ip), vehicle: saline 96 % of control

CCC(C)COC(=O)c1cccc2c1-c1ccccc1C2=O (configuration not stated)
inactive: [1] 98 % of control | [2] 88 % of control | [3] 93 % of control

COS(=O)(=O)CCCCCC[N+](C)(C)C
inactive: dose: 50.0 mg/kg/injection, schedule: Q01DX001 (ip), vehicle: saline 93 % of control | [4] 102 % of control | [5] 98 % of control

O=C1c2ccccc2C(C(C/C(=N/O)c2ccccc2)c2ccccc2)c2ccccc21 (configuration not stated)
inactive: [6] 93 % of control | [7] 93 % of control | [8] 100 % of control

NC1CC(=O)NC1=O (configuration not stated)
inactive: dose: 100.0 mg/kg/injection, schedule: Q04DX002 (ip), vehicle: saline 93 % of control | dose: 200.0 mg/kg/injection, schedule: Q04DX002 (ip), vehicle: saline 100 % of control | dose: 400.0 mg/kg/injection, schedule: Q04DX002 (ip), vehicle: saline 100 % of control

CNS(=O)(=O)c1ccc(NC(=O)C(Cl)(Cl)Cl)cc1
inactive: [1] 105 % of control | [9] 102 % of control | dose: 100.0 mg/kg/injection, schedule: Q04DX003 (ip), vehicle: other 101 % of control | [2] 104 % of control | dose: 200.0 mg/kg/injection, schedule: Q01DX009 (ip), vehicle: Klucel (hydroxypropylcellulose) (HPC) 95 % of control | dose: 200.0 mg/kg/injection, schedule: Q04DX003 (ip), vehicle: other 101 % of control | [3] 104 % of control | dose: 400.0 mg/kg/injection, schedule: Q01DX009 (ip), vehicle: Klucel (hydroxypropylcellulose) (HPC) 96 % of control | dose: 400.0 mg/kg/injection, schedule: Q04DX003 (ip), vehicle: other 98 % of control

CC(=O)C1(C)OC(c2ccccc2)=NC1=O (configuration not stated)
inactive: [4] 104 % of control | [5] 93 % of control | dose: 400.0 mg/kg/injection, schedule: Q01DX001 (ip), vehicle: saline 115 % of control

O=C1NC(=O)C(c2ccco2)N1 (configuration not stated)
inactive: [10] 105 % of control | [11] 103 % of control | [12] 114 % of control

Nc1ccc(Cl)cc1Br
inactive: dose: 50.0 mg/kg/injection, schedule: Q01DX009 (ip), vehicle: acetone 95 % of control | dose: 100.0 mg/kg/injection, schedule: Q01DX009 (ip), vehicle: acetone 92 % of control | dose: 100.0 mg/kg/injection, schedule: Q04DX003 (ip), vehicle: acetone 96 % of control | dose: 200.0 mg/kg/injection, schedule: Q01DX009 (ip), vehicle: acetone 90 % of control | dose: 200.0 mg/kg/injection, schedule: Q04DX003 (ip), vehicle: acetone 100 % of control | dose: 400.0 mg/kg/injection, schedule: Q04DX003 (ip), vehicle: acetone 96 % of control

CCOC(=O)CC(=O)N/N=C(/C)C(=O)OCC
inactive: [13] 94 % of control | [6] 97 % of control | [14] 87 % of control | [7] 105 % of control | [15] 97 % of control | [8] 105 % of control

CCCSCCNC(=O)NCCSCCC
inactive: dose: 100.0 mg/kg/injection, schedule: Q04DX002 (ip), vehicle: other 107 % of control | dose: 200.0 mg/kg/injection, schedule: Q04DX002 (ip), vehicle: other 104 % of control | dose: 400.0 mg/kg/injection, schedule: Q04DX002 (ip), vehicle: other 100 % of control

O=S1(=O)CCCCC1
inactive: dose: 75.0 mg/kg/injection, schedule: Q01DX009 (ip), vehicle: other 106 % of control | dose: 100.0 mg/kg/injection, schedule: Q04DX003 (ip), vehicle: saline sonified 95 % of control | dose: 150.0 mg/kg/injection, schedule: Q01DX009 (ip), vehicle: other 101 % of control | dose: 200.0 mg/kg/injection, schedule: Q04DX003 (ip), vehicle: saline sonified 93 % of control | dose: 300.0 mg/kg/injection, schedule: Q01DX009 (ip), vehicle: other 93 % of control | dose: 400.0 mg/kg/injection, schedule: Q04DX003 (ip), vehicle: saline sonified 95 % of control

Cc1ccc(/C=N/NC(=O)c2ccncc2)cc1
inactive: dose: 25.0 mg/kg/injection, schedule: Q01DX009 (ip), vehicle: Klucel (hydroxypropylcellulose) (HPC) 94 % of control | dose: 50.0 mg/kg/injection, schedule: Q01DX009 (ip), vehicle: Klucel (hydroxypropylcellulose) (HPC) 96 % of control | [9] 94 % of control and 96 % of control

CCCCCCCCC[n+]1ccc(C(N)=O)cc1
inactive: [6] 98 % of control

O=C(COc1ccc(Cl)c(Cl)c1)Nc1ccc[n+](Cc2ccc(Cl)c(Cl)c2)c1
inactive: [10] 90 % of control | [11] 97 % of control | [12] 104 % of control

CCCCCCCCCCCCCCCCC(Oc1ccc(Cl)cc1Cl)C(=O)O (configuration not stated)
inactive: [10] 102 % of control | [11] 98 % of control | [12] 101 % of control

O=C(/C=C/c1ccccc1)c1ccc([N+](=O)[O-])cc1
inactive: dose: 100.0 mg/kg/injection, schedule: Q04DX002 (ip), vehicle: Klucel (hydroxypropylcellulose) (HPC) 94 % of control | dose: 200.0 mg/kg/injection, schedule: Q04DX002 (ip), vehicle: Klucel (hydroxypropylcellulose) (HPC) 94 % of control | dose: 400.0 mg/kg/injection, schedule: Q04DX002 (ip), vehicle: Klucel (hydroxypropylcellulose) (HPC) 108 % of control

O=C(NC(=S)Nc1ccc([N+](=O)[O-])cc1Br)c1ccc(Cl)cc1Cl
inactive: [13] 89 % of control and 90 % of control | dose: 100.0 mg/kg/injection, schedule: Q04DX002 (ip), vehicle: saline with Tween-80 87 % of control and 90 % of control | [14] 93 % of control and 90 % of control | dose: 200.0 mg/kg/injection, schedule: Q04DX002 (ip), vehicle: saline with Tween-80 86 % of control and 92 % of control | [15] 93 % of control and 95 % of control | dose: 400.0 mg/kg/injection, schedule: Q04DX002 (ip), vehicle: saline with Tween-80 104 % of control and 92 % of control

CC(C)=CCn1c(=O)c2c(ncn2C)n(C)c1=O
inactive: [6] 98 % of control | [7] 98 % of control
